This assay deals with T1, human PTH1 receptor (Homo sapiens, UniProt Q03431).
T1 sequence (Q03431 27-593): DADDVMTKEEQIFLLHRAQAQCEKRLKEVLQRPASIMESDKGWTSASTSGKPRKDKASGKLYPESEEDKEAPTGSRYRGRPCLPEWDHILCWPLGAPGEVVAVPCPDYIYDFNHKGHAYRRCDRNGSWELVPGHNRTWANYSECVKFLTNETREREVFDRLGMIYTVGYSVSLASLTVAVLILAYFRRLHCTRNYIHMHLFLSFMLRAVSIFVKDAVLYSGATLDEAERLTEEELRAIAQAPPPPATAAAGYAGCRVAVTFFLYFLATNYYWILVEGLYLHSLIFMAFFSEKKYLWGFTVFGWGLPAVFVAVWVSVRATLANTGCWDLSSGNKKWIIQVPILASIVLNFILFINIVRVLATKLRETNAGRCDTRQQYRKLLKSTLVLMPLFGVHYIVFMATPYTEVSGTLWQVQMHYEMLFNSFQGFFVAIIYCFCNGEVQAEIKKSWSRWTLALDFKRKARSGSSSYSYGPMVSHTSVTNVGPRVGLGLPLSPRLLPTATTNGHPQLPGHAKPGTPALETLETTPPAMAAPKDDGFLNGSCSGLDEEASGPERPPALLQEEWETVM
The assay can be described thus: In vitro cAMP signal activity in HKRK-B7 cells (LLC-PK1 cells overexpressing the human PTH1 receptor). The class given is cell-based.

Setting [1] is: HKRK-B7 cells, compound at 1×10^−3 M, cAMP produced as percentage of that produced by hPTH(1-34) at 100 nM.

The source of these data is patent US9169254B2, “Spiroimidazolone derivative” (Chugai Seiyaku Kabushiki Kaisha, priority 2009, dated 2015).

On to `Cc1cc(C2=NC3(CCN(S(=O)(=O)/C=C/c4c(C)cc(C(=O)N5CCC(O)(CF)CC5)cc4C)CC3)C(=O)N2)ccc1C(F)(F)F` [Compound 1254, 8-{(E)-2-[4-(4-fluoromethyl-4-hydroxy-piperidine-1-carbonyl)-2,6-dimethyl-phenyl]-ethenesulfonyl}-2-(3-methyl-4-trifluoromethyl-phenyl)-1,3,8-triaza-spiro[4.5]dec-1-en-4-one], for which the “cAMP production activity (%)” value under setting [1] is given as 87%. For `CNc1cc(C)c(CCS(=O)(=O)N2CCC3(CC2)N=C(c2cccc(SC(F)(F)F)c2)NC3=O)c(C)c1` [Compound 1036, 8-[2-(2,6-dimethyl-4-methylamino-phenyl)-ethanesulfonyl]-2-(3-trifluoromethylsulfanyl-phenyl)-1,3,8-triaza-spiro[4.5]dec-1-en-4-one], under setting [1], the “cAMP production activity (%)” value is reported as 82%. For the molecule `Cc1cc(N(C(N)=O)C(C)C)cc(C)c1/C=C/S(=O)(=O)N1CCC2(CC1)N=C(C1CCC(C)CC1)NC2=O` (stereo not drawn) [Compound 726, 1-(3,5-Dimethyl-4-{(E)-2-[2-(4-methyl-cyclohexyl)-4-oxo-1,3,8-triaza-spiro[4.5]dec-1-ene-8-sulfonyl]-vinyl}-phenyl)-1-isopropyl-urea], the “cAMP production activity (%)” value under setting [1] worked out at 75%. Turning to `Cc1cc(N(C)C(=O)C(F)(F)F)cc(C)c1CCS(=O)(=O)N1CCC2(CC1)N=C(C1CCCC(C)C1)NC2=O` (stereo not drawn) [Compound 932, N-(3,5-Dimethyl-4-{2-[2-(3-methyl-cyclohexyl)-4-oxo-1,3,8-triaza-spiro[4.5]dec-1-ene-8-sulfonyl]-ethyl}-phenyl)-2,2,2-trifluoro-N-methyl-acetamide], the “cAMP production activity (%)” value under setting [1] was 66%. For the molecule `COCCN(C(C)=O)c1cc(C)c(/C=C/S(=O)(=O)N2CCC3(CC2)N=C(C2CCC(C)CC2)NC3=O)c(C)c1` (stereo not drawn) [Compound 514, N-(3,5-dimethyl-4-{(E)-2-[2-(4-methyl-cyclohexyl)-4-oxo-1,3,8-triaza-spiro[4.5]dec-1-ene-8-sulfonyl]-vinyl}-phenyl)-N-(2-methoxy-ethyl)-acetamide], under setting [1], the “cAMP production activity (%)” value was found to be 75%.

As to `Cc1cc(N2C(=O)CNC2=O)cc(C)c1/C=C/S(=O)(=O)N1CCC2(CC1)N=C(c1ccc(F)c(C(F)(F)F)c1)NC2=O` [Compound 636, 3-(4-{(E)-2-[2-(4-Fluoro-3-trifluoromethyl-phenyl)-4-oxo-1,3,8-triaza-spiro[4.5]dec-1-ene-8-sulfonyl]-vinyl}-3,5-dimethyl-phenyl)-imidazolidine-2,4-dione], the “cAMP production activity (%)” value under setting [1] came out at 88%. Same read-out and setting: under `O=C1NC(CCCCCCCCC(F)(F)F)=NC12CCN(S(=O)(=O)/C=C/c1cccc3c1ccn3C[C@H](O)CO)CC2` [Compound 622, 8-{(E)-2-[1-((S)-2,3-Dihydroxy-propyl)-1H-indol-4-yl]-ethenesulfonyl}-2-(9,9,9-trifluoro-nonyl)-1,3,8-triaza-spiro[4.5]dec-1-en-4-one] stands 134%; under `Cc1cc(N(C)C(N)=O)cc(C)c1CCS(=O)(=O)N1CCC2(CC1)N=C(c1cccc(OCCCC(F)(F)F)c1)NC2=O` [Compound 1338, 1-[3,5-dimethyl-4-(2-{4-oxo-2-[3-(4,4,4-trifluoro-butoxy)-phenyl]-1,3,8-triaza-spiro[4.5]dec-1-ene-8-sulfonyl}-ethyl)-phenyl]-1-methyl-urea], 84%. Still for that read-out and setting: under `CCCCCCCCCCCC1=NC2(CCN([S@TB17](=O)(=O)CCc3c(C)cc(N(C)C(N)=O)cc3C)CC2)C(=O)N1` [Compound 1141, 1-{3,5-dimethyl-4-[2-(4-oxo-2-undecyl-1,3,8-triaza-spiro[4.5]dec-1-ene-8-sulfonyl)-ethyl]-phenyl}-1-methyl-urea] stands 83%. Consider `COc1c(N(C)C(=O)OC(C)(C)C)cc(C)c(CCS(=O)(=O)N2CCC3(CC2)N=C([C@H]2CC[C@H](C)CC2)NC3=O)c1C` [Compound 669, (2-methoxy-3,5-dimethyl-4-{2-[2-(4-methyl-cyclohexyl)-4-oxo-1,3,8-triaza-spiro[4.5]dec-1-ene-8-sulfonyl]-ethyl}-phenyl)-methyl-carbamic acid tert-butyl ester], for which the “cAMP production activity (%)” value under setting [1] is given as 58%. `COC(=O)NCCc1ccc(CCS(=O)(=O)N2CCC3(CC2)N=C(C2CCCCC2)NC3=O)cc1` [Compound 672, (2-{4-[2-(2-Cyclohexyl-4-oxo-1,3,8-triaza-spiro[4.5]dec-1-ene-8-sulfonyl)-ethyl]-phenyl}-ethyl)-carbamic acid methyl ester]: the “cAMP production activity (%)” value under setting [1] is on record as 47%.

In the case of `O=C1NC(C2CCCCC2)=NC12CCN(S(=O)(=O)CCCCc1cccc3[nH]ccc13)CC2` [Compound 263, 2-cyclohexyl-8-[4-(1H-indol-4-yl)-butane-1-sulfonyl]-1,3,8-triaza-spiro[4.5]dec-1-en-4-one], under setting [1], the “cAMP production activity (%)” value amounted to 41%. With `CC[C@H]1CC[C@H](C2=NC3(CCN(S(=O)(=O)CCc4ccc(N)c(Cl)c4C)CC3)C(=O)N2)CC1` [Compound 1293, 8-[2-(4-Amino-3-chloro-2-methyl-phenyl)-ethanesulfonyl]-2-(4-ethyl-cyclohexyl)-1,3,8-triaza-spiro[4.5]dec-1-en-4-one], the “cAMP production activity (%)” value under setting [1] is 84%. In the case of `CCC1CCC(C2=NC3(CCN(S(=O)(=O)CCc4c(C)cc(N(C)C(N)=O)cc4C)CC3)C(=O)N2)CC1` (stereo not drawn) [Compound 732, 1-(4-{2-[2-(4-Ethyl-cyclohexyl)-4-oxo-1,3,8-triaza-spiro[4.5]dec-1-ene-8-sulfonyl]-ethyl}-3,5-dimethyl-phenyl)-1-methyl-urea], the “cAMP production activity (%)” value under setting [1] came out at 45%. As for `Cc1cc(N(C)C(N)=O)cc(C)c1CCS(=O)(=O)N1CCC2(CC1)N=C(c1cccc(C(F)(F)C(F)(F)C(F)(F)C(F)(F)F)c1)NC2=O` [Compound 1341, 1-(3,5-dimethyl-4-{2-[2-(3-nonafluorobutyl-phenyl)-4-oxo-1,3,8-triaza-spiro[4.5]dec-1-ene-8-sulfonyl]-ethyl}-phenyl)-1-methyl-urea], the “cAMP production activity (%)” value (0.1 µM) turned out to be 83%.

As to `Cc1cc(C(=O)N2CCC(C)(O)CC2)cc(C)c1/C=C/S(=O)(=O)N1CCC2(CC1)N=C(c1ccc(Cl)c(OCC(F)(F)C(F)(F)F)c1)NC2=O` [Compound 1230, 2-[4-chloro-3-(2,2,3,3,3-pentafluoro-propoxy)-phenyl]-8-{(E)-2-[4-(4-hydroxy-4-methyl-piperidine-1-carbonyl)-2,6-dimethyl-phenyl]-ethenesulfonyl}-1,3,8-triaza-spiro[4.5]dec-1-en-4-one], under setting [1], the “cAMP production activity (%)” value is 64%. Regarding `[2H]C([2H])([2H])C([2H])([2H])C([2H])([2H])C([2H])([2H])Oc1ccc(C2=NC3(CCN(S(=O)(=O)/C=C/c4c(C)cc(C(=O)N5CCC(O)(CF)CC5)cc4C)CC3)C(=O)N2)cc1C(F)(F)F` [Compound 1261, 2-(4-[1,1,2,2,3,3,4,4,4-^2H9]butoxy-3-trifluoromethyl-phenyl)-8-{(E)-2-[4-(4-fluoromethyl-4-hydroxy-piperidine-1-carbonyl)-2,6-dimethyl-phenyl]-ethenesulfonyl}-1,3,8-triaza-spiro[4.5]dec-1-en-4-one], under setting [1], the “cAMP production activity (%)” value came out at 99%. With `Cc1cc(N2C[C@H](CO)OC2=O)ccc1/C=C/S(=O)(=O)N1CCC2(CC1)N=C(c1cccc(C(F)(F)F)c1)NC2=O` [Compound 222, 8-{(E)-2-[4-((R)-5-hydroxymethyl-2-oxo-oxazolidin-3-yl)-2-methyl-phenyl]-ethenesulfonyl}-2-(3-trifluoromethyl-phenyl)-1,3,8-triaza-spiro[4.5]dec-1-en-4-one], under setting [1], the “cAMP production activity (%)” value stood at 43%.
